Data: patent publication US20220125764A1, “PHARMACEUTICAL COMPOSITION COMPRISING BENZIMIDAZOLE DERIVATIVE COMPOUND” (HK INNO.N CORPORATION, priority 2019, published 2022)

Assays:
[1] = test system: erosive gastroesophageal reflux disease; experiment: Double-blinded, randomized, active-controlled maintenance therapy trial in subjects with treated erosive gastroesophageal reflux disease (Example 2); assay type: in vivo, human; settings: for subjects with erosion observed by upper gastrointestinal endoscopy: test group (tegoprazan 25 mg, at least 17 subjects) and control group (lansoprazole 15 mg) pooled, total 37 subjects; for symptom evaluation: symptoms of heartburn and gastric acid reflux while taking the drug: all the subjects of the group, once a day for four weeks, tegoprazan 25 mg, lansoprazole 15 mg
Protocol: A double-blinded, randomized and active controlled study was designed to identify an effect of 25 mg of tegoprazan on maintenance therapy for gastroesophageal reflux disease.
(2) a person who is diagnosed with erosive gastroesophageal reflux disease (LA grade A-D) through upper gastrointestinal endoscopy within 12 weeks based on random group allocation (visit 2);
(3) a person who is identified as having erosive gastroesophageal reflux disease treated through upper gastrointestinal endoscopy within seven days based on random group allocation (visit 2) (a person who is identified the cure of erosion after administration of a standard dose of therapeutic agents for erosive gastroesophageal reflux disease (PPI, P-CAB, etc.) for 4-8 weeks due to a typical symptom of gastroesophageal reflux disease and erosive gastroesophageal reflux disease);
The clinical trial was performed in a double-blinded, randomized, active-controlled and multi-center clinical trial manner, and the clinical trial may be schematized as shown in FIG. 1.
The subjects were classified using stratified block randomization based on LA grades identified by upper gastrointestinal endoscopy performed within 12 weeks before the random allocation on visit (visit 2). Each group was administered with the drug for 24 weeks.
As identified in the table above, the test group was orally dosed with 25 mg of tegoprazan tablet (Preparation Example 1)/lansoprazole 15 mg placebo (Preparation Example 4), and the control group was orally dosed with 25 mg of tegoprazan placebo (Preparation Example 2)/lansoprazole 15 mg capsule (Preparation Example 3).
The subjects randomly allocated to each group took the prescribed clinical trial drug once a day at a regular time from the first day of prescription. A diary on the trial subjects was kept from the start day of taking the clinical trial drug.
During a visit in 4 weeks (visit 3), 12 weeks (visit 4) and 24 weeks (visit 5) later, subjects paid a visit on an empty stomach without taking the clinical trial drug, then received a scheduled test, then were newly prescribed the same drug, then took it from the very day, then received a test in their visit in 24 weeks (visit 5) later, and then stopped the administration.
In four weeks (visit 3) after administering the clinical trial drug, endoscopy was not performed, but clinical laboratory tests (hematologic test, blood chemistry test, blood coagulation test, urine test, hepatitis test, etc.) and evaluation of symptoms were performed. In 12 weeks (visit 4) and 24 weeks (visit 5) later, it was checked whether erosion recurred or not through the upper gastrointestinal endoscopy, and the clinical laboratory test, evaluation of symptoms and the like were performed. Clinical trial subjects took the clinical trial drug for up to 24 weeks and then entered into a safety follow-up (f/u) period, in which the f/u was performed (by phone or visit) in two weeks after the last administration.
(1) Endoscopic remission: No recurrence of erosion (LA grade A-D) observed through upper gastrointestinal endoscopy during a maintenance period (12 weeks)
(1) Rate of subjects without main symptoms (heartburn and gastric acid reflux)
Rate of subjects without main symptoms=(Subjects without main symptoms expressed/Number of clinical trial subjects whose symptoms were evaluated during a maintenance period after administration of the clinical trial drug)×100

gastric pH = experiment: 24-hour gastric pH monitoring after repeated oral dosing in healthy male volunteers (Example 1); assay type: in vivo, human; settings: for HTR > pH4 (%) Mean: time for which pH of gastric fluid exceeds and maintains 4 based on 24 hours: healthy male volunteers
Protocol: Tegoprazan and esomeprazole were orally administered for 7 days as shown in table 1 (an open-label, active controlled, parallel design and repeated dose).
There occurred neither serious adverse reactions nor dropouts caused thereby while this clinical trial was in progress. With regard to a gastric pH, a time for which the gastric pH exceeds 4 was evaluated during an observation period for the gastric pH.
After evaluating pharmacokinetic parameters, the time (%) for which a pH of gastric fluid exceeds and maintains 4 based on 24 hours is the same as shown in the following table 2.

Row | SMILES | subjects with erosion observed by upper gastrointestinal endoscopy ([1]; 12 weeks) | symptom evaluation: symptoms of heartburn and gastric acid reflux while taking the drug [1] | maintenance effect after four weeks of administration ([1]; 25 mg once a day, 4 weeks) | maintenance effect (endoscopic remission maintenance) after twelve weeks of administration ([1]; 25 mg once a day, 12 weeks) | inhibition of the recurrence of gastroesophageal reflux disease ([1]; 25 mg, conclusion from 12-week endoscopy) | HTR > pH4 (%) Mean: time for which pH of gastric fluid exceeds and maintains 4 based on 24 hours (gastric pH; Day 1, 25 mg once a day orally) | HTR > pH4 (%) Mean: time for which pH of gastric fluid exceeds and maintains 4 based on 24 hours (gastric pH; Day 7, 25 mg once a day orally for seven days) | average of time for which the gastric pH exceeds 4 (Time pH>4, %) (gastric pH; from day 1 after the administration, 25 mg, observed for 24 hours)
1 | Cc1c(OCC(F)(F)F)ccnc1C[S+]([O-])c1nc2ccccc2[nH]1 (stereo not shown) [lansoprazole, reference compound] | only one subject among the total 37 subjects | had not experienced symptoms of heartburn and gastric acid reflux |  |  |  |  |  | 
2 | Cc1nc2cc(C(=O)N(C)C)cc(O[C@H]3CCOc4cc(F)cc(F)c43)c2[nH]1 [tegoprazan, (S)-4-(5,7-difluorochroman-4-yloxy)-N,N,2-trimethyl-1H-benzo[d]imidazole-6-carboxamide] | only one subject among the total 37 subjects | had not experienced symptoms of heartburn and gastric acid reflux | demonstrated a maintenance effect | A maintenance effect was observed | effectively inhibits the recurrence of gastroesophageal reflux disease | 40.6% | 56.6% | at least 40%
